Measurements from patent publication US7741319B2 (Spirogen Limited, priority 2004, dated 2010).

Test system: K562 human chronic myeloid leukaemia cells
Assay: In vitro cytotoxicity, MTT assay in K562 cells
Format: cell-based
Method: K562 human chronic myeloid leukaemia cells were maintained in RPM1 1640 medium supplemented with 10% fetal calf serum and 2 mM glutamine at 37° C. in a humidified atmosphere containing 5% CO2 and were incubated with a specified dose of drug for 1 hour or 96 hours at 37° C. in the dark. The incubation was terminated by centrifugation (5 min, 300 g) and the cells were washed once with drug-free medium. Following the appropriate drug treatment, the cells were transferred to 96-well microtiter plates (10^4 cells per well, 8 wells per sample). Plates were then kept in the dark at 37° C. in a humidified atmosphere containing 5% CO2. The assay is based on the ability of viable cells to reduce a yellow soluble tetrazolium salt, 3-(4,5-dimethylthiazol-2-yl)-2,5-diphenyl-2H-tetrazolium bromide (MTT, Aldrich-Sigma), to an insoluble purple formazan precipitate. Following incubation of the plates for 4 days (to allow control cells to increase in number by approximately 10 fold), 20 μL of MTT solution (5 mg/mL in phosphate-buffered saline) was added to each well and the plates further incubated for 5 h. The plates were then centrifuged for 5 min at 300 g and the bulk of the medium pipetted from the cell pellet leaving 10-20 μL per well. DMSO (200 μL) was added to each well and the samples agitated to ensure complete mixing. The optical density was then read at a wavelength of 550 nm on a Titertek Multiscan ELISA plate reader, and a dose-response curve was constructed. For each curve, an IC50 value was read as the dose required to reduce the final optical density to 50% of the control value.

| Structure (SMILES) | IC50 (K562, 1 h, 1 hour incubation) | also measured |
| --- | --- | --- |
| COc1cc2c(cc1OCCCOc1cc3c(cc1OC)C(=O)N1C=C(/C=C/C(=O)N(C)C)C[C@H]1C=N3)N=C[C@@H]1CC(/C=C/C(=O)N(C)C)=CN1C2=O | 3.8 ± 0.44 µM |  |
| C/C=C/C1=CN2C(=O)c3cc(OC)c(OC)cc3N=C[C@@H]2C1 [Compound 30q, (11aS)-7,8-Dimethoxy-2-(1-propenyl)-1,11a-dihydro-5H-pyrrolo[2,1-c][1,4]benzodiazepin-5-one] |  | IC50 (K562, 96 h, 96 hour incubation period, threshold less than 10 nM): < 0.01 µM; IC50 (K562, 96 h, 96 hour incubation period, threshold less than 1 μM): < 1 µM |
| COc1ccc(C2=CN3C(=O)c4cc(OC)c(OCCCOc5cc6c(cc5OC)C(=O)N5C=C(c7ccc(OC)cc7)C[C@H]5C=N6)cc4N=C[C@@H]3C2)cc1 [ZC-207, 1,1′-[[(Propane-1,3-diyl)dioxy]bis[(11aS)-7-methoxy-2-(p-methoxybenzene)-1,11a-dihydro-5H-pyrrolo[2,1-c][1,4]benzodiazepine-5-one]]] | 0.0053 ± 0.0049 µM |  |
| COc1cc2c(cc1OCCCOc1cc3c(cc1OC)C(=O)N1C=C(C#Cc4ccccc4)C[C@H]1C=N3)N=C[C@@H]1CC(C#Cc3ccccc3)=CN1C2=O [ZC-209] | < 0.01 µM |  |
| C/C=C/C1=CN2C(=O)c3cc(OC)c(OCCCOc4cc5c(cc4OC)C(=O)N4C=C(/C=C/C)C[C@H]4C=N5)cc3N=C[C@@H]2C1 [ZC-211] |  | IC50 (1 hour incubation): < 0.01 µM |
